The term IC50 denotes the concentration that inhibits the measured activity by half.

This test deals with T. cruzi amastigote (Td Tomato-modified) in Vero cells. As to the kind of experiment: In vitro IC50 measurement of T. cruzi amastigote killing using Td Tomato-modified T. cruzi. In kind it is cell-based. To be noted: Trypanosoma cruzi, 72 h, fluorescence, read-out: IC50: I Org. amastigote Growth T. cruzi 3 d. The method, then: Example 254. In Vitro IC50 Measurement of T. cruzi Amastigote Killing Using Td Tomato-Modified T. cruzi
The T. cruzi parasites used in this assay were genetically modified to express Td Tomato fluorescent protein. Vero cells (African green monkey kidney epithelial cells) were harvested from continuous cultures using trypsin and added to the inner 60 wells of 96-well Greiner Bio One plates (plate catalog #655090) at 200 ul/well of […]. Cells were allowed to adhere for 1 h before infection with T. cruzi. T. cruzi for infection were harvested from previously-infected Vero cells, washed, pelleted and resuspended at 5×10^6/mL. 50 uL of parasites were added to each well containing Vero cells. Compounds were prepared from 5 mM stock concentrations in DMSO to final concentrations in wells ranging from 5 uM to 5 nM. Wells were provided for negative controls, lacking compounds. Plates were placed into a 37° C. incubator for 20 min, then a “Day 0” reading was taken on a Synergy H4 plate reader to record initial fluorescence levels, at 544 (excitation) and 612 nm (emission). 96-well plates were placed in Tupperware containers with wet paper towels and incubated at 37° C. incubator for 72 h. After 72 h plates were reread (Day 3 reading) and data analyzed using Excel and/or Graphpad software. Day 0 fluorescence was subtracted from Day 3 to remove input parasite fluorescence. Growth curves are generated and 50% and 90% inhibitory concentrations are determined by nonlinear regression analysis.
Regarding `CC(C)[C@H](NC(=O)c1ccc2c(c1)B(O)OC2)C(=O)OCc1ccc(F)c(F)c1` [Example 6-185, 3,4-difluorobenzyl (1-hydroxy-1,3-dihydrobenzo[c][1,2]oxaborole-6-carbonyl)-L-valinate], the IC50 was 21 to 999 nM.

For the molecule `CC(C)[C@H](NC(=O)c1ccc2c(c1C(F)F)B(O)OC2)C(=O)OCc1ccccc1` [Example 6-079, Benzyl (7-(difluoromethyl)-1-hydroxy-1,3-dihydrobenzo[c][1,2]oxaborole-6-carbonyl)-L-valinate], the IC50 was 21 to 999 nM.

With `Cc1cc2c(cc1C(=O)N[C@H](C(=O)OCc1ccc(F)cc1)C(C)C)B(O)OC2` [Example 6-129, 4-Fluorobenzyl (1-hydroxy-5-methyl-1,3-dihydrobenzo[c][1,2]oxaborole-6-carbonyl)-L-valinate], the IC50 lay within 21 to 999 nM.

For `Cc1c(C(=O)N[C@H](C(=O)OCc2ccccn2)C(C)(C)O)ccc2c1B(O)OC2` [Example 6-230, Pyridin-2-ylmethyl (S)-3-hydroxy-2-(1-hydroxy-7-methyl-1,3-dihydrobenzo[c][1,2]oxaborole-6-carboxamido)-3-methylbutanoate], the IC50 lay in the range of 21 to 999 nM.

Regarding `Cc1c(C(=O)N[C@H](C(=O)OCC2CCC(F)(F)CC2)C(C)(C)O)ccc2c1B(O)OC2` [Example 6-248, (4,4-difluorocyclohexyl)methyl (S)-3-hydroxy-2-(1-hydroxy-7-methyl-1,3-dihydrobenzo[c][1,2]oxaborole-6-carboxamido)-3-methylbutanoate], the IC50 was in the range of 21 to 999 nM.

With `Cc1c(C(=O)N[C@H](C(=O)OCC2CCCC2)C(C)C)ccc2c1B(O)OC2` [Example 6-115, Cyclopentylmethyl (1-hydroxy-7-methyl-1,3-dihydrobenzo[c][1,2]oxaborole-6-carbonyl)-L-valinate], the IC50 is at most 20 nM.

As for `Cc1c(C(=O)N[C@H](C(=O)OCCN2CCN(C)CC2)C(C)C)ccc2c1B(O)OC2` [Example 6-096, 2-(4-Methylpiperazin-1-yl)ethyl (1-hydroxy-7-methyl-1,3-dihydrobenzo[c][1,2]oxaborole-6-carbonyl)-L-valinate], the IC50 was at least 1000 nM.

For the molecule `Cc1c(C(=O)N[C@H](C(=O)OCc2cccc(N3CCNCC3)n2)C(C)C)ccc2c1B(O)OC2` [Example 6-213, (6-(piperazin-1-yl)pyridin-2-yl)methyl (1-hydroxy-7-methyl-1,3-dihydrobenzo[c][1,2]oxaborole-6-carbonyl)-L-valinate], the IC50 is at least 1000 nM.

Consider `COc1c(C(=O)N[C@H](C(=O)OCc2ccccc2)C(C)C)ccc2c1B(O)OC2` [Example 6-194, Benzyl (1-hydroxy-7-methoxy-1,3-dihydrobenzo[c][1,2]oxaborole-6-carbonyl)-L-valinate], for which the IC50 was in the range of 21 to 999 nM.

For the molecule `Cc1c(C(=O)N[C@H](C(=O)OCCN2CC3CC(C2)O3)C(C)C)ccc2c1B(O)OC2` [Example 6-231, 2-(6-oxa-3-azabicyclo[3.1.1]heptan-3-yl)ethyl (1-hydroxy-7-methyl-1,3-dihydrobenzo[c][1,2]oxaborole-6-carbonyl)-L-valinate], the IC50 was in the range of 21 to 999 nM.

Turning to `Cc1c(C(=O)N[C@H](C(=O)OCC2COCCO2)C(C)C)ccc2c1B(O)OC2` (stereo partly drawn) [Example 6-227, (1,4-dioxan-2-yl)methyl (1-hydroxy-7-methyl-1,3-dihydrobenzo[c][1,2]oxaborole-6-carbonyl)-L-valinate], the IC50 is at most 20 nM.

With `COCC1(COC(=O)[C@@H](NC(=O)c2ccc3c(c2C)B(O)OC3)C(C)C)COC1` [Example 6-158, (3-(Methoxymethyl)oxetan-3-yl)methyl (1-hydroxy-7-methyl-1,3-dihydrobenzo[c][1,2]oxaborole-6-carbonyl)-L-valinate], the IC50 lay within 21 to 999 nM.

In the case of `Cc1c(C(=O)N[C@H](C(=O)OCc2cncc(N3CCNCC3)n2)C(C)C)ccc2c1B(O)OC2` [Example 6-205, (6-(piperazin-1-yl)pyrazin-2-yl)methyl (1-hydroxy-7-methyl-1,3-dihydrobenzo[c][1,2]oxaborole-6-carbonyl)-L-valinate], the IC50 is at least 1000 nM.

For the origin of these results see US11578087B2, “Oxaborole esters and uses thereof” (priority 2016, dated 2023).
